According to US20040242591A1, “Oxazolidinone derivatives as pontential antimicrobials” (priority 2001, published 2004):

Assays:
[1] = system: VRE 6A; assay: MIC by agar incorporation method, VRE 6A; assay type: cell-based, Enterococcus faecium; parameters: unit not given here; conditions: Mueller Hinton agar, 10^4 CFU/spot, 18 hours
Description: 4) Ent. faecium […]—Enterococcus faecium 6A Van®, Cipro®

[2] = system: MRSA 562; assay: MIC by agar incorporation method, MRSA 562; assay type: cell-based, Methicillin Resistant Staphylococcus aureus; parameters: unit not given here; conditions: Mueller Hinton agar, 10^4 CFU/spot, 24 hours
[3] = system: MRSA 15187; assay: MIC by agar incorporation method, MRSA 15187; assay type: cell-based, Methicillin Resistant Staphylococcus aureus; parameters: unit not given here; conditions: Mueller Hinton agar, 10^4 CFU/spot, 24 hours
Description: 2) MRSA 15187—Methicillin Resistant Staphylococcus aureus

[4] = system: Strep.pyog. ATCC 19615; assay: MIC by agar incorporation method, S.pyogenes 19615; assay type: cell-based, Streptococcus pyogenes; parameters: unit not given here; conditions: Mueller Hinton agar, 10^4 CFU/spot, 18 hours
Description: 6) Strep.pyog. ATCC 19615—Streptococcus pyogenes

[5] = system: Ent. faecalis ATCC 29212; assay: MIC by agar incorporation method, E.faecalis 29212; assay type: cell-based, Enterococcus faecalis; parameters: unit not given here; conditions: Mueller Hinton agar, 10^4 CFU/spot, 18 hours
Description: 3) Ent. faecalis ATCC 29212—Enterococcus faecalis ATCC 29212

[6] = system: S. pneum AB 34; assay: MIC by agar incorporation method, S. pneum AB 34; assay type: cell-based, Streptococcus pneumoniae; parameters: unit not given here; conditions: Mueller Hinton agar, 10^4 CFU/spot, 18 hours
[7] = system: S.aureus ATCC 25923; assay: MIC by agar incorporation method, S.aureus 25923; assay type: cell-based, Staphylococus aureus; parameters: unit not given here; conditions: Mueller Hinton agar, 10^4 CFU/spot, 18 hours
[8] = system: MRSA 33; assay: MIC by agar incorporation method, MRSA 33; assay type: cell-based, Methicillin Resistant Staphylococcus aureus; parameters: unit not given here; conditions: Mueller Hinton agar, 10^4 CFU/spot, 24 hours
[9] = system: Strep. pne. ATCC 6303; assay: MIC by agar incorporation method, S. pneum 6303; assay type: cell-based, Streptococcus pneumoniae; conditions: Mueller Hinton agar, 10^4 CFU/spot, 18 hours
Description: 5) Strep. pne. ATCC 6303—Streptococcus pneumoniae ATCC 6303

| In Vitro (MIC) VRE 6A [1] | In Vitro (MIC) MRSA 562 [2] | In Vitro (MIC) MRSA 15187 [3] | In Vitro (MIC) S.pyogenes 19615 [4] | In Vitro (MIC) E.faecalis 29212 [5] | In Vitro (MIC) S. pneum AB 34 [6] | In Vitro (MIC) S.aureus 25923 [7] | In Vitro (MIC) MRSA 33 [8] | In Vitro (MIC) S. pneum 6303 [9] [µg/mL] | SMILES |
| --- | --- | --- | --- | --- | --- | --- | --- | --- | --- |
| 4 | 4 | 8 | 1 | 4 | 4 | 8 | 8 | 4 | CC(=O)NC[C@H]1CN(c2ccc(N3CCN(C(=O)c4ccc(N)s4)CC3)c(F)c2)C(=O)O1 [Compound No. 34, (S)-N-[[3-[3-Fluoro-4-[N-1-[4-{2-thiophenoyl-(5-amino)}]piperazinyl]phenyl]-2-oxo-5-oxazolidinyl]methyl]acetamide] |
| 1 | 1 | 1 | 1 | 0.5 | 1 | 1 | 1 | 1 | CC(=O)NC[C@H]1CN(c2ccc(N3CCN(C(=O)c4ccc(-c5ccc(Cl)cc5[N+](=O)[O-])o4)CC3)c(F)c2)C(=O)O1 [Compound No. 35] |
| 1 | 2 | 2 | 1 | 2 | 1 | 2 | 2 | 0.5 | CC(=O)NC[C@H]1CN(c2ccc(N3CCN(C(=O)c4occc4C)CC3)c(F)c2)C(=O)O1 [Compound No. 36, (S)-N-[[3-[3-Fluoro-4-[N-1-[4-{2-furoyl-(3-methyl)}]piperazinyl]phenyl]-2-oxo-5-oxazolidinyl]methyl]acetamide] |
| 0.5 | 0.5 | 0.5 | <0.06 | 0.25 | 0.125 | 0.5 | 0.5 | 0.25 | CC(=O)NC[C@H]1CN(c2ccc(N3CCN(C(=O)c4oc([N+](=O)[O-])cc4C)CC3)c(F)c2)C(=O)O1 [Compound No. 37, (S)-N-[[3-[3-Fluoro-4-[N-1-[4-{2-furoyl-(3-methyl-5-nitro)}]piperazinyl]phenyl]-2-oxo-5-oxazolidinyl]methyl]acetamide] |
| 4 | 4 | 4 | 2 | 4 | 2 | 8 | 4 | 2 | CC(=O)NC[C@H]1CN(c2ccc(N3CCN(C(=O)c4cc(N(C)C)c([N+](=O)[O-])s4)CC3)c(F)c2)C(=O)O1 [Compound No. 38] |
| <0.125 | 0.25 | 0.5 | <0.125 | 0.5 | 4 | 0.5 | 0.25 | 0.5 | CC(=O)NC[C@H]1CN(c2ccc(N3CCN(C(=O)c4ccc([N+](=O)[O-])o4)CC3)c(F)c2)C(=O)O1 [Compound No. 39, (S)-N-[[3-[3-Fluoro-4-[N-1-[4-{2-Furoyl-(5-nitro)acylic}]piperazinyl]phenyl]-2-oxo-5-oxazolidinyl]methyl]-acetamide] |
| 0.5 | 1 | 0.25 | 0.5 | 1 | 1 | 0.5 | 0.5 | 1 | CC(=O)NC[C@H]1CN(c2ccc(N3CCN(C(=O)C=Cc4ccc([N+](=O)[O-])s4)CC3)c(F)c2)C(=O)O1 [Compound No. 40, (S)-N-[[3-[3-Fluoro-4-[N-1-[4-{2-thiophenoyl-(5-nitro)acrylic}]piperazinyl]phenyl]-2-oxo-5-oxazolidinyl]methyl]-acetamide] |
| 2 | 2 | 2 | 0.5 | 2 | 1 | 2 | 2 | 0.5 | O=C(CCl)NC[C@H]1CN(c2ccc(N3CCN(Cc4ccc([N+](=O)[O-])o4)CC3)c(F)c2)C(=O)O1 [Compound No. 46] |
| 4 | 4 | 4 | 1 | 4 | 4 | 4 | 4 | 2 | O=C(CCl)NC[C@H]1CN(c2ccc(N3CCN(Cc4ccc([N+](=O)[O-])s4)CC3)c(F)c2)C(=O)O1 [Compound No. 47, (S)-N-[[3-[3-Fluoro-4[N-1[4-[2-thiophenyl-(5-nitro)methyl}]piperazinyl]-phenyl]-2-oxo-5-oxazolidinyl]methyl]monochloroacetamide] |
| 2 | 4 | 4 | 16 | 2 | 16 | 4 | 4 | 16 | O=C(CCl)NC[C@H]1CN(c2ccc(N3CCN(Cc4cc(Br)c([N+](=O)[O-])s4)CC3)c(F)c2)C(=O)O1 [Compound No. 48] |
| 8 | 8 | 8 | 16 | 8 | 16 | 8 | 8 | 16 | CC(Cl)C(=O)NC[C@H]1CN(c2ccc(N3CCN(Cc4cc(Br)c([N+](=O)[O-])s4)CC3)c(F)c2)C(=O)O1 (stereo partly drawn) [Compound No. 51] |
| 2 | 1 | 2 | 1 | 2 | 4 | 2 | 2 | 1 | CC(=O)NC[C@H]1CN(c2ccc(N3CCCN(Cc4ccc([N+](=O)[O-])o4)CC3)c(F)c2)C(=O)O1 [Compound No. 52, (S)-N-[[3-[3-Fluoro-4-[N-1-[4-{2-furyl(5-nitro)methyl}]homopiperazinyl]phenyl]-2-oxo-5-oxazolidinyl]methyl]acetamide] |
| 0.5 | 0.5 | 0.5 | 0.25 | 1 | 8 | 1 | 0.5 | 8 | CC(=O)NC[C@H]1CN(c2ccc(N3CCCN(C(=O)c4ccc([N+](=O)[O-])s4)CC3)c(F)c2)C(=O)O1 [Compound No. 54, (S)-N-[[3-[3-Fluoro-4-[N-1-[4-{2-thiophenoyl-(5-nitro)}]homopiperazinyl]phenyl]-2-oxo-5-oxazolidinyl]methyl]acetamide] |

| SMILES | In Vitro (MIC) VRE 6A [1] | In Vitro (MIC) MRSA 562 [2] | In Vitro (MIC) MRSA 15187 [3] | In Vitro (MIC) S.pyogenes 19615 [4] | In Vitro (MIC) E.faecalis 29212 [5] | In Vitro (MIC) S. pneum AB 34 [6] | In Vitro (MIC) S.aureus 25923 [7] | In Vitro (MIC) MRSA 33 [8] | In Vitro (MIC) S. pneum 6303 [9] [µg/mL] |
| --- | --- | --- | --- | --- | --- | --- | --- | --- | --- |
| O=C(CF)NC[C@H]1CN(c2ccc(N3CCC(Cc4ccc([N+](=O)[O-])o4)CC3)c(F)c2)C(=O)O1 [Compound No. 42, (S)-N-[[3-[3-Fluoro-4-[N-1-[4-{2-furyl(5-nitro)methyl}]piperinyl]phenyl]-2-oxo-5-oxazolidinyl]methyl]-fluoroacetamide] | 4 | 2 | 2 | 0.5 | 4 | 2 | 4 | 4 | 1 |
| O=C(NC[C@H]1CN(c2ccc(N3CCN(Cc4ccc([N+](=O)[O-])o4)CC3)c(F)c2)C(=O)O1)C(F)F [Compound No. 45, (S)-N-[[3-[3-Fluoro-4-[N-1-[4-{2-furyl(5-nitro)methyl}]piperazinyl]phenyl]-2-oxo-5-oxazolidinyl]methyl]-difluoroacetamide] | 2 | 2 | 1 | 0.5 | 2 | 2 | 2 | 2 | 0.5 |
